Data set [1] in a line: Degree of dissolution of the carotenoid in the oily phase: filtration through a 0.45 μm pore size filter, then HPLC of the filtrate. The class given is physicochemical. As to the method:
“Dissolving” or “dissolution” means obtaining molecular dispersions or molecular aggregates of a carotenoid which may be monomers, dimers, trimers etc and/or colloidal dispersions of the carotenoid. Assessment of the degree of dissolution of the carotenoid in an oily phase is performed by filtration of the oily phase through a 0.45 μm pore size filter, followed by HPLC determination of the carotenoid content in the filtrate and compared with the total carotenoid concentration in the unfiltered oily phase. “Substantially” means at least 40 wt %.
(§1) The oily astaxanthin solution may be further processed by mixing with fish feed pellets.

Data set [2] is described as follows: HPLC analysis of trans/cis isomer content and degradation products after in-line heating and cooling. Type of data set: physicochemical. The conditions noted are these: 1 s.
From the text: as §1

Setting [3] is: Example 2: 1500 or 250 ppm astaxanthin composition, heated 150° C., then cooled.

For `CC1=C(/C=C/C(C)=C/C=C/C(C)=C/C=C/C=C(C)/C=C/C=C(C)/C=C/C2=C(C)C(=O)[C@@H](O)CC2(C)C)C(C)(C)C[C@H](O)C1=O` [astaxanthin], in data set [1] (Example 2: 1500 or 250 ppm astaxanthin composition in soya bean oil/fish oil, heated 150° C., transit time 1 s, then cooled), the “degree of dissolution of astaxanthin after filtration through 0.45 μm filter (HPLC)” value is given as “completely solubilised”. The “degree of dissolution of astaxanthin after filtration through 0.45 μm filter (HPLC)” value in data set [1] (Example 3: 250 ppm astaxanthin composition in soy bean oil/fish oil, heated 126° C., 1 s, then cooled with fish oil of 23° C.) is “completely solubilised”. For the same molecule, in data set [2] (setting [3]), the all trans-astaxanthin content is listed as 75%, the cis isomers content is listed as 25% and the further degradation products entry is listed as “no further degradation products”. The molecule also gave a cis-isomers content in data set [2] (Example 3: 250 ppm astaxanthin composition, heated 126° C., then cooled with fish oil of 23° C.) of 12%.

Values taken from US8632832B2, “Direct dissolution” (Phares Pharmaceutical Research N.V., priority 2005, dated 2014).
